These results are taken from the NIST ThermoML archive (doi:10.1021/je300045c).

± gives the expanded uncertainty stated by the source.

For series [1] the following is noted: 358.15 K, 101 kPa, Liquid.
Series [2] in a line: xn = mol fraction of the nth substance listed. The following applies: 358.15 K; 101 kPa; Liquid; Falling or rolling sphere viscometry; x1 = 1.
Series [3] in a line: molar heat capacity at constant pressure; wn = mass fraction of the nth substance listed. The following applies: 358.15 K; 101 kPa; Liquid; Small sample (50 mg) DSC; w1 = 1.

As for `CCCCn1cc[n+](C)c1.CS(=O)(=O)[O-]` [1-butyl-3-methylimidazolium methanesulfonate], the electrical conductivity in series [1] (Alternating current cell with electrodes) turned out to be 0.805 ± 0.14 S/m. The mass density in series [1] (Vibrating tube method) is 1134 ± 2 kg/m3.
For the compound `O` [water] + CCCCn1cc[n+](C)c1.CS(=O)(=O)[O-], in series [2], the viscosity worked out at 0.334 ± 0.033 mPa·s. Besides, in series [3], the “molar heat capacity at constant pressure” value turned out to be 4.12 ± 0.23 J/K/mol.

In general, mass density refers to mass per unit of volume. In general, viscosity refers to the internal friction of a fluid under shear.
